Where two headings read alike, the source gives them in different places.
How the values were obtained:
BCL-XL [1] = target: T1, BCL-XL (Homo sapiens, UniProt Q07817); experiment: 1D 1H-NMR binding assay; set-up: key to 1D-^1H NMR: +++, Very Active; ++, Active; +, Mild; −, Weak; settings: for 1D ^1H-NMR Binding Assay (BCL-XL): Table 9; for 1D-^1H NMR: Table 3, BCL-XL 25 μM, compound 200 μM
Method: By observing the aliphatic region of the spectra, binding could be readily detected due to chemical shift changes in active site methyl groups of Ile, Leu, Thr, Val or Ala (region between −0.8 and 0.3 ppm). All experiments were performed with a 600 MHz spectrometer Bruker Avance 600 equipped with four rf channels and z-axis pulse-field gradients.
Target sequence in this assay (Q07817 whole entry): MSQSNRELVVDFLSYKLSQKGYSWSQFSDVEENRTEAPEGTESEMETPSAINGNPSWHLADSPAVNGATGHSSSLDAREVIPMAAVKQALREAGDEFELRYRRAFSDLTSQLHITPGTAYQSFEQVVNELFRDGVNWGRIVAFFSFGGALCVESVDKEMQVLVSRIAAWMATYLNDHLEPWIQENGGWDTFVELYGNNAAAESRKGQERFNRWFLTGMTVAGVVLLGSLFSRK

H1299 cell line = experiment: Cell viability, ATP-LITE assay; type: cell-based, human; settings: Homo sapiens
Method: (§1) The activity of the compounds against human cancer cell lines (PC3ML, H460, H1299, RS11846) were assessed by using the ATP-LITE assay (PerkinElmer). All cells were seeded in either F12 or RPMI1640 medium with 5 mM L-glutamine supplemented with 5% fetal bovine serum (Mediatech Inc.), penicillin and streptomycin (Omega). For maintenance, cells were cultured in 5% FBS. Cells plated into 96 well plates at varying initial densities depending on doubling time. H460 and H1299 plated at 2000 cells/well, A549 and PC3 at 3000 cells/well, and RS118456S at 10,000 cells/well. Compounds were diluted to final concentrations with 0.1% DMSO. Prior to dispensing compounds onto cells, fresh 5% media was placed into wells. Administration of compounds occurred 24 hours after seeding into the fresh media. Cell viability was evaluated using ATP-LITE reagent (PerkinElmer) after 72 hours of treatment. Data were normalized to the DMSO control-treated cells using Prism version 5.01 (Graphpad Software).

PC3ML cells = experiment: Cell viability, ATP-LITE assay; type: cell-based, human; settings: Homo sapiens, PC3-ML
Method: as §1

[2] = test system: human lymphoma RS11846 cell line; experiment: Apoptosis, Annexin V-FITC and propidium iodide assay; type: cell-based; settings: for EC50: Homo sapiens
BCL-XL [3] = target: T1, BCL-XL; experiment: Competitive fluorescence polarization assay (FPA), Bak BH3 peptide; type: binding; set-up: 100 nM GST-BCL-XL ΔTM protein; settings: Table 9
Method: For competitive binding assays, 100 nM GST-BCL-XL ΔTM protein was preincubated with the tested compound at varying concentrations in 47.5 μL PBS (pH=7.4) in 96-well black plates at room temperature for 10 min, then 2.5 μL of 100 nM FITC-labeled Bak BH3 peptide was added to produce a final volume of 50 μL. The wild-type and mutant Bak BH3 peptides were included in each assay plate as positive and negative controls, respectively. […] IC50 was determined by fitting the experimental data to a sigmoidal dose-response nonlinear regression model (SigmaPlot 10.0.1, Systat Software, Inc., San Jose, Calif., USA). Data reported are mean of three independent experiments±standard error (SE). […] Fluorescence polarization was measured after 10 min.
Target sequence in this assay (Q07817 1-209 limits assumed): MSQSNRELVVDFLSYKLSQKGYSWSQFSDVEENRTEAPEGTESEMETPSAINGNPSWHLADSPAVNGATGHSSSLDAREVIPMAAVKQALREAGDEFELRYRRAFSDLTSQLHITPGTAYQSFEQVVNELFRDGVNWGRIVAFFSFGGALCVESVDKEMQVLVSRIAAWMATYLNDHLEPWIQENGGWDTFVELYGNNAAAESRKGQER

[4] = test system: H460 human lung cell line; experiment: Cell viability, ATP-LITE assay; type: cell-based; settings: Homo sapiens
Method: as §1

RS11846 cell line = experiment: Cell viability, ATP-LITE assay; type: cell-based; settings: Homo sapiens, read-out: RS11846 EC50 (ATP-LITE assay)
Method: as §1

[5] = test system: BP3 human B-cell lymphoma cell line; experiment: Annexin V-FITC and propidium iodide assay; type: cell-based; settings: for EC50: Homo sapiens, B-cell, Table 3, Annexin V-FITC and propidium iodide assay, read-out: EC50 BP3
[6] = NCI-H1299, Table 9, read-out: H1299 EC50
[7] = Table 9, read-out: RS11846 EC50 (Annexin V- and propidium iodide assay)
[8] = NCI-H460, Table 9, read-out: H460 EC50
[9] = NCI-H1299, read-out: H1299 EC50
[10] = read-out: RS11846 EC50 (Annexin V- and propidium iodide assay), Table 9
[11] = NCI-H460, heading: EC50 H460, Table 3, ATP-LITE assay, read-out: EC50 H460
[12] = Table 3, Annexin V-FITC and propidium iodide assay, heading: EC50 RS11846, read-out: EC50 RS11846

Compound	EC50 (H1299 cell line; [6])	EC50 (PC3ML cells; Table 9, read-out: PC3ML EC50)	EC50 [2, 7]	IC50 (BCL-XL [3]; read-out: FPA IC50 (BCL-XL))	EC50 [4, 8]	1D ^1H-NMR Binding Assay (BCL-XL) (BCL-XL [1])	EC50 (RS11846 cell line; Table 9)	other results
Cc1cc2cc(O)c(O)cc2c(O)c1-c1c(C)cc2cc(O)c(O)cc2c1O [Compound II, 3,3′-dimethyl-2,2′-binaphthyl-1,1′,6,6′ 7,7′-hexaol]	13.4 µM	12.6 µM	24.7 µM		10.1 µM	+	10 µM	
Cc1cc2c(C(=O)c3ccc(-c4ccccc4)cc3)c(O)c(O)cc2c(O)c1-c1c(C)cc2c(C(=O)c3ccc(-c4ccccc4)cc3)c(O)c(O)cc2c1O [Compound IX, (1,1′,6,6′,7,7′-hexahydroxy-3,3′-dimethyl-2,2′-binaphthyl-5,5′-diyl)bis(biphenyl-4-ylmethanone)]						+		EC50 (H1299 cell line; [9]): 9.6 µM; EC50 (PC3ML cells; read-out: PC3ML EC50, Table 9): 7.7 µM; EC50 ([4]; NCI-H460, read-out: H460 EC50): 8.2 µM; EC50 (RS11846 cell line): 2.8 µM; EC50 [2, 10]: 25.9 µM
Cc1cc2c(C(=O)O)c(O)c(O)cc2c(O)c1-c1c(C)cc2c(C(=O)O)c(O)c(O)cc2c1O [Compound 14, 1,1′,6,6′,7,7′-hexahydroxy-3,3′-dimethyl-2,2′-binaphthyl-5,5′-dicarboxylic acid]								1D-^1H NMR (BCL-XL [1]): −; EC50 (H1299 cell line; NCI-H1299, heading: EC50 H1299, Table 3, ATP-LITE assay, read-out: EC50 H1299): > 30 µM; EC50 (PC3ML cells; Table 3, ATP-LITE assay, heading: EC50 PC3ML, read-out: EC50 PC3ML): > 30 µM; EC50 [4, 11]: > 30 µM; EC50 [2, 12]: > 30 µM; induction of apoptosis of the RS11846 cell line ([2]; in words): weak or no apoptosis; EC50 ([5]; heading: EC50 BP3): > 30 µM
Cc1cc2c(C(=O)CC(C)C)c(O)c(O)cc2c(O)c1-c1c(C)cc2c(C(=O)CC(C)C)c(O)c(O)cc2c1O [Compound IV, 1,1′-(1,1′,6,6′,7,7′-hexahydroxy-3,3′-dimethyl-2,2′-binaphthyl-5,5′-diyl)bis(3-methylbutan-1-one)]	3.6 µM	7.5 µM	13.7 µM	1.3 µM	1.1 µM	+	10 µM	
Cc1cc2c(C(=O)Cc3cccc(Br)c3)c(O)c(O)cc2c(O)c1-c1c(C)cc2c(C(=O)Cc3cccc(Br)c3)c(O)c(O)cc2c1O [Compound XIII, 1,1′-(1,1′,6,6′,7,7′-hexahydroxy-3,3′-dimethyl-2,2′-binaphthyl-5,5′-diyl)bis(2-(3-bromophenyl)ethanone)]						++		EC50 (H1299 cell line; [9]): 2.6 µM; EC50 (PC3ML cells; read-out: PC3ML EC50, Table 9): 3.1 µM; EC50 ([4]; NCI-H460, read-out: H460 EC50): 2.7 µM; EC50 (RS11846 cell line): 8.4 µM; EC50 [2, 10]: 5.3 µM; IC50 (BCL-XL [3]; FPA IC50 (BCL-XL)): 1.31 µM
Cc1cc2c(C(=O)C(C)C)c(O)c(O)cc2c(O)c1-c1c(C)cc2c(C(=O)C(C)C)c(O)c(O)cc2c1O [Compound III, 1,1′-(1,1′,6,6′,7,7′-hexahydroxy-3,3′-dimethyl-2,2′-binaphthyl-5,5′-diyl)bis(2-methylpropan-1-one)]						++		EC50 (H1299 cell line; [9]): 4.8 µM; EC50 (PC3ML cells; read-out: PC3ML EC50, Table 9): 3.9 µM; EC50 ([4]; NCI-H460, read-out: H460 EC50): 1.5 µM; EC50 (RS11846 cell line): 15 µM; EC50 [2, 10]: 14.7 µM
Cc1cc2c(C(=O)Cc3ccc(OC(F)(F)F)cc3)c(O)c(O)cc2c(O)c1-c1c(C)cc2c(C(=O)Cc3ccc(OC(F)(F)F)cc3)c(O)c(O)cc2c1O [Compound XIV, 1,1′-(1,1′,6,6′,7,7′-hexahydroxy-3,3′-dimethyl-2,2′-binaphthyl-5,5′-diyl)bis(2-(4-(trifluoromethoxy)phenyl)ethanone)]						++		EC50 (H1299 cell line; [9]): 3.9 µM; EC50 (PC3ML cells; read-out: PC3ML EC50, Table 9): 1.9 µM; EC50 ([4]; NCI-H460, read-out: H460 EC50): 3.3 µM; EC50 (RS11846 cell line): 1.8 µM; EC50 [2, 10]: 6.2 µM; IC50 (BCL-XL [3]; FPA IC50 (BCL-XL)): 1.3 µM
Cc1cc2c(C(=O)NCCc3ccc(Cl)cc3)c(O)c(O)cc2c(O)c1-c1c(C)cc2c(C(=O)NCCc3ccc(Cl)cc3)c(O)c(O)cc2c1O [Compound 8t, N^5,N^5′-bis(4-chlorophenethyl)-1,1′,6,6′,7,7′-hexahydroxy-3,3′-dimethyl-2,2′-binaphthyl-5,5′-dicarboxamide]								1D-^1H NMR (BCL-XL [1]): ++; EC50 [4, 11]: 1.3 µM; EC50 [2, 12]: 5.1 µM; EC50 [5]: 0.7 µM
CN(C)CC[C@H](CSc1ccccc1)Nc1ccc(S(=O)(=O)NC(=O)c2ccc(N3CCN(Cc4ccccc4-c4ccc(Cl)cc4)CC3)cc2)cc1[N+](=O)[O-] [ABT-737, reference compound]								cell activity against BP3 cell lines [5]: no cell activity

Second part, led by results:

EC50 (H1299 cell line; [6])	EC50 (PC3ML cells; Table 9, read-out: PC3ML EC50)	EC50 [2, 7]	IC50 (BCL-XL [3]; read-out: FPA IC50 (BCL-XL))	EC50 [4, 8]	Compound	1D ^1H-NMR Binding Assay (BCL-XL) (BCL-XL [1])	EC50 (RS11846 cell line; Table 9)	other results
4.2 µM	3.6 µM	18.3 µM	2.9 µM		Cc1cc2c(C(=O)c3ccccc3)c(O)c(O)cc2c(O)c1-c1c(C)cc2c(C(=O)c3ccccc3)c(O)c(O)cc2c1O [Compound VII, (1,1′,6,6′,7,7′-hexahydroxy-3,3′-dimethyl-2,2′-binaphthyl-5,5′-diyl)bis(phenylmethanone)]	+		
2.2 µM	2.8 µM	3.1 µM	0.14 µM	1.5 µM	Cc1cc2c(C(=O)CCc3ccc(F)cc3)c(O)c(O)cc2c(O)c1-c1c(C)cc2c(C(=O)CCc3ccc(F)cc3)c(O)c(O)cc2c1O [Compound XVI, 1,1′-(1,1′,6,6′,7,7′-hexahydroxy-3,3′-dimethyl-2,2′-binaphthyl-5,5′-diyl)bis(3-(4-fluorophenyl)propan-1-one)]	++	2.3 µM	
4.8 µM	2.8 µM	13.4 µM		3.6 µM	Cc1cc2c(C(=O)c3ccc(C(C)(C)C)cc3)c(O)c(O)cc2c(O)c1-c1c(C)cc2c(C(=O)c3ccc(C(C)(C)C)cc3)c(O)c(O)cc2c1O [Compound X, (1,1′,6,6′,7,7′-hexahydroxy-3,3′-dimethyl-2,2′-binaphthyl-5,5′-diyl)bis((4-tert-butylphenyl)methanone)]	−	2.3 µM	
2 µM	2.9 µM	3 to 5.5 µM	0.25 µM	2.2 µM	Cc1cc2c(C(=O)c3ccc(C(F)(F)F)cc3)c(O)c(O)cc2c(O)c1-c1c(C)cc2c(C(=O)c3ccc(C(F)(F)F)cc3)c(O)c(O)cc2c1O [Compound XI, (1,1′,6,6′,7,7′-hexahydroxy-3,3′-dimethyl-2,2′-binaphthyl-5,5′-diyl)bis((4-(trifluoromethyl)phenyl)methanone)]	+	2.5 µM	
2.1 µM	1.9 µM	5.2 µM		1.8 µM	Cc1cc2c(C(=O)CC3CCCCC3)c(O)c(O)cc2c(O)c1-c1c(C)cc2c(C(=O)CC3CCCCC3)c(O)c(O)cc2c1O [Compound XV, 1,1′-(1,1′,6,6′,7,7′-hexahydroxy-3,3′-dimethyl-2,2′-binaphthyl-5,5′-diyl)bis(2-cyclohexylethanone)]	+	2 µM	
3 µM	3 µM	6.6 µM	1.29 µM	1.5 µM	CCCCC(CC)CC(=O)c1c(O)c(O)cc2c(O)c(-c3c(C)cc4c(C(=O)CC(CC)CCCC)c(O)c(O)cc4c3O)c(C)cc12 (centres unmarked) [Compound V, 1,1′-(1,1′,6,6′,7,7′-hexahydroxy-3,3′-dimethyl-2,2′-binaphthyl-5,5′-diyl)bis(3-ethylheptan-1-one)]	+	2.8 µM	
